Target: T1, human CCR5 chemokine receptor (Homo sapiens, UniProt P51681)
T1 construct: expressed in transfected cells
Experiment: Inhibition of [125I]-RANTES binding to CCR5/CHO cells (CCR5 antagonistic activity)
Conditions: 40 min, test compound 1 μM, [125I]-RANTES as ligand, room temperature, read-out: Binding Inhibitory Ratio (%)
Description: Cloning of CCR5 gene from human spleen cDNA was conducted using the PCR method. Using spleen cDNA (0.5 ng) (TOYOBO CO., LTD, QUICK-Clone cDNA) as a template, PCR was performed in a DNA Thermal Cycler 480 (manufactured by Perkin Elmer) (reaction conditions: 30 cycles of 95° C. for 1 minute, 60° C. for 1 minute, and 75° C. for 5 minutes) by adding primer sets, SEQ. ID NO: 1 (sequence length: 34; sequence type: nucleic acid; chain number: single strand; topology: linear; kind of sequence: other nucleic acid synthetic. DNA) described in Experimental. Example (1) of WO 99/32100, and SEQ ID NO: 2 (sequence length: 34; sequence type: nucleic acid; chain number: single strand; topology: linear; kind of sequence: other nucleic acid synthetic. DNA) described in Experimental. Example (1) of WO 99/32100, (25 pmol, respectively), which were prepared referring to the nucleotide sequence of CCR5 gene, as reported by Samson et al. (Biochemistry 35 (11), 3362-3367 (1996)) and by using TaKaRa. EX Taq (Takara Shuzo). The resultant. PCR product was subjected to agarose gel electrophoresis to collect an approximately 1.0 kb. DNA fragment, which was subjected to an Original TA Cloning Kit (Funakoshi Co., Ltd.) to carry out cloning of CCR5 gene.
The plasmid obtained above was digested with restriction enzymes XbaI (Takara Shuzo Co., Ltd.) and BamHI (Takara Shuzo Co., Ltd.), and then subjected to agarose gel electrophoresis to collect DNA fragment of about 1.0 kb. The DNA fragment and plasmid pcDNA 3.1 (Funakoshi. Co., Ltd.) for expression in animal cells, which was previously digested with XbaI and BamHI, were mixed and ligated by DNA Ligation Kit Ver. 2 (Takara Shuzo Co., Ltd.). The resulting plasmid was subjected to transformation into. E. coli JM109 competent cells (Takara Shuzo Co., Ltd.) to obtain plasmid pCKR5.
CHO-K1 cells were cultured in a 750-ml tissue culture flask (Becton, Dickinson and Company.) using. Ham F12 medium (NIHON PHARMACEUTICAL CO., LTD.) containing 10% fetal bovine serum (Lifetech Oriental) and were collected using 0.5 g/L trypsin-0.2 g/L EDTA (Lifetech Oriental). The cells were washed with PBS (Lifetech Oriental), centrifuged (1000 rpm, 5 minutes), and suspended in PBS. The DNA was introduced into the cells using a Gene Pulser (Bio-Rad Laboratories, Inc.) under the following conditions. Namely, 8×10^6 cells and 10 μg of plasmid pCKR5 for expression of human CCR5 were placed in a cuvette having a 0.4-cm gap, and electroporation was carried out with a voltage 0.25 kV and 960 μF of capacitance. Then, the cells were transferred into Ham's. F12 medium containing 10% fetal bovine serum, and incubated for 24 hours. The cells were collected, centrifuged, and suspended in Ham' F12 medium containing 10% fetal bovine serum and Geneticin (Lifetech Oriental) at a concentration of 500 μg/ml. The suspension of cells was diluted to a concentration of 10^4 cells/ml, and was inoculated onto 96-well plate (Becton Dickinson), to obtain Geneticin-resistant strain.
Then, resulting. Geneticin-resistant strain were cultured on 96-well plate (Becton Dickinson), and CCR5-expressing cells were selected from the resistant cells. Namely, in an assay buffer, (Ham's F12 medium containing 0.5% BSA, and 20 mM HEPES (Wako Pure Chemical Ind., pH 7.2)) to which was added […][125I]-RANTES (Amersham) as a ligand, the cells were subjected to a binding reaction at room temperature for 40 minutes. Wells containing the cells were washed with ice-cooled PBS, and 50 μl/well of 1M NaOH was added and stirred. The cells to which the ligand was bound specifically, i.e., CCR5/CHO cells, were selected by measurement of radioactivity using a […].
The CCR5/CHO cells were inoculated onto 96-well microplate at a concentration of 5×10^4 cells/well, and were cultured for 24 hours. After removal of the medium by aspiration, to each well was added an assay buffer containing a test compound (1 μM), and [125I]/RANTES (Amersham) used as a ligand at a concentration of […]. […]

T1 sequence (P51681 whole entry): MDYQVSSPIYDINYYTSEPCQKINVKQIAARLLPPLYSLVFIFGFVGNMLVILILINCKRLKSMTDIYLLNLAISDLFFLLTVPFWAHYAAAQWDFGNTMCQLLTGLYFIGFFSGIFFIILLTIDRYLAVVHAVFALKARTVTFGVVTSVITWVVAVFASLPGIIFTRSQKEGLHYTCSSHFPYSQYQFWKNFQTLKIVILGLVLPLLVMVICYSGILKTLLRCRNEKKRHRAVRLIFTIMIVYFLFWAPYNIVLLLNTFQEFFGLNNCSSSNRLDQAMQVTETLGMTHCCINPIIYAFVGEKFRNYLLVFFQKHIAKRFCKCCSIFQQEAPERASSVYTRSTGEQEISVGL

Question: With `CCCCOCCOc1ccc(-c2ccc3c(c2)C=C(C(=O)Nc2ccc([S+]([O-])Cc4cncn4CCOC)cc2)CCN3CC(C)C)cc1` (stereo not drawn) [Compound 308, 7-[4-(2-butoxyethoxy)phenyl]-1-isobutyl-N-[4-[[[1-(2-methoxyethyl)imidazol-5-yl]methyl]sulfinyl]phenyl]-2,3-dihydro-1-benzazepine-4-carboxamide] as the molecule, how does the inhibition at 1 µM read?
Answer: 100%

Question: With `CCCCOCCOc1ccc(-c2ccc3c(c2)C=C(C(=O)Nc2ccc(CCc4nncn4CCC)cc2)CCN3CC(C)C)cc1` [Compound 152, 7-[4-(2-butoxyethoxy)phenyl]-1-isobutyl-N-[4-[2-(4-propyl-4H-1,2,4-triazol-3-yl)ethyl]phenyl]-2,3-dihydro-1H-benzazepine-4-carboxamide] as the molecule, how does the inhibition at 1 µM read?
Answer: 97%

Question: Which inhibition at 1 µM does the source give for `CCCCOCCOc1ccc(-c2ccc3c(c2)C=C(C(=O)Nc2ccc([S+]([O-])Cc4cncn4CCC)cc2)CCN3CC(C)C)cc1` (stereo not drawn) [Compound 371, 7-[4-(2-butoxyethoxy)phenyl]-1-isobutyl-N-[4-[[[1-propylimidazol-5-yl]methyl]sulfinyl]phenyl]-2,3-dihydro-1-benzazepine-4-carboxamide] here?
Answer: 100%

Question: Which inhibition at 1 µM does the source give for `CCCCOCCOc1ccc(-c2ccc3c(c2)C=C(C(=O)Nc2ccc(SCc4cncn4C(C)C)cc2)CCN3CC(C)C)cc1` [Compound 383, 7-[4-(2-butoxyethoxy)phenyl]-1-isobutyl-N-[4-[[[1-isopropylimidazol-5-yl]methyl]sulfanyl]phenyl]-2,3-dihydro-1-benzazepine-4-carboxamide] here?
Answer: 93%

Question: For `CCCCOCCOc1ccc(-c2ccc3c(c2)C=C(C(=O)Nc2ccc([S+]([O-])Cc4nc(C)cc(C)n4)cc2)CCN3CC(C)C)cc1` (stereo not drawn) [Compound 230, 7-[4-(2-butoxyethoxy)phenyl]-N-[4-[[(4,6-dimethyl-2-pyrimidinyl)methyl]sulfinyl]phenyl]-1-isobutyl-2,3-dihydro-1-benzazepine-4-carboxamide], which inhibition at 1 µM is on record?
Answer: 98%

Test system: not given
Experiment: not given
Conditions: not given

Question: For `CCCCOCCOc1ccc(-c2ccc3c(c2)C=C(C(=O)Nc2ccc(S(=O)(=O)Cc4cncn4CC(N)=O)cc2)CCN3CC(C)C)cc1` [Compound 431, N-[4-[[[1-(2-amino-2-oxoethyl)-1H-imidazol-5-yl]methyl]sulfonyl]phenyl]-7-[4-(2-butoxyethoxy)phenyl]-1-isobutyl-2,3-dihydro-1H-1-benzazepine-4-carboxamide], which melting point is on record?
Answer: 229 to 231 °C

Question: With `CCCCOCCOc1ccc(-c2ccc3c(c2)C=C(C(=O)Nc2ccc(CSc4nnc(C)o4)cc2)CCN3CC(C)C)cc1` [Compound 116, 7-[4-(2-butoxyethoxy)phenyl]-N-[4-(5-methyl-1,3,4-oxadiazol-2-ylthiomethyl)phenyl]-1-isobutyl-2,3-dihydro-1H-1-benzazepine-4-carboxamide] as the molecule, how does the melting point read?
Answer: 107 to 109 °C

Question: For `CCCCOCCOc1ccc(-c2ccc3c(c2)C=C(C(=O)Nc2ccc(C(O)c4cc(C)cc[n+]4[O-])c(OC)c2)CCN3CC(C)C)cc1` (stereo not drawn) [Compound 10, 7-[4-(2-butoxyethoxy)phenyl]-N-[4-[hydroxy(4-methyl-1-oxidopyridin-2-yl)methyl]-3-methoxyphenyl]-1-isobutyl-2,3-dihydro-1H-1-benzazepine-4-carboxamide], which melting point is on record?
Answer: 174 to 176 °C

Question: With `CCCCOCCOc1ccc(-c2ccc3c(c2)C=C(C(=O)Nc2ccc(CSc4nncs4)cc2)CCN3CC(C)C)cc1` [Compound 115, 7-[4-(2-butoxyethoxy)phenyl]-N-[4-(1,3,4-thiadiazol-2-ylthiomethyl)phenyl]-1-isobutyl-2,3-dihydro-1H-1-benzazepine-4-carboxamide] as the molecule, how does the melting point read?
Answer: 77 to 79 °C

Question: With `CCCCOCCOc1ccc(-c2ccc3c(c2)C=C(C(=O)Nc2ccc([C@H](O)c4cccc[n+]4[O-])cc2)CCN3C=O)cc1` [Compound 77, 7-[4-(2-butoxyethoxy)phenyl]-1-formyl-N-[4-[(S)-hydroxy(1-oxidopyridin-2-yl)methyl]phenyl]-2,3-dihydro-1H-1-benzazepine-4-carboxamide] as the molecule, how does the melting point read?
Answer: 120 to 125 °C

Question: Which melting point does the source give for `CCCCOCCOc1ccc(-c2ccc3c(c2)C=C(C(=O)Nc2ccc(C(O)c4cccc(C)[n+]4[O-])cc2)CCN3C(=O)C(F)(F)F)cc1` (stereo not drawn) [Compound 96, 7-[4-(2-butoxyethoxy)phenyl]-N-[4-[hydroxy(6-methyl-1-oxidopyridin-2-yl)methyl]phenyl]-1-trifluoroacetyl-2,3-dihydro-1H-1-benzazepine-4-carboxamide] here?
Answer: 170 to 173 °C

Question: For `CCCCOCCOc1ccc(-c2ccc3c(c2)C=C(C(=O)Nc2ccc(SCc4ncon4)cc2)CCN3CC(C)C)cc1` [Compound 128, 7-[4-(2-butoxyethoxy)phenyl]-1-isobutyl-N-[4-(1,2,4-oxadiazol-3-ylmethylthio)phenyl]-2,3-dihydro-1H-benzazepine-4-carboxamide], which melting point is on record?
Answer: 112 to 115 °C

Question: With `CCCCOCCOc1ccc(-c2ccc3c(c2)C=C(C(=O)Nc2ccc(SCc4cncn4CC(N)=O)cc2)CCN3CC(C)C)cc1` [Compound 429, N-[4-[[[1-(2-amino-2-oxoethyl)-1H-imidazol-5-yl]methyl]thio]phenyl]-7-[4-(2-butoxyethoxy)phenyl]-1-isobutyl-2,3-dihydro-1H-1-benzazepine-4-carboxamide] as the molecule, how does the melting point read?
Answer: 152 to 154 °C

Question: For `CCCCOCCOc1ccc(-c2ccc3c(c2)C=C(C(=O)Nc2ccc(/C(Cc4nccn4CCC)=N/O)cc2)CCN3CC(C)C)cc1` [Compound 450, 7-[4-(2-butoxyethoxy)phenyl]-N-[4-((1E)-N-hydroxy-2-(1-propylimidazol-2-yl)ethaneimidoyl)phenyl]-1-isobutyl-2,3-dihydro-1H-1-benzazepine-4-carboxamide], which melting point is on record?
Answer: 153.5 to 154.5 °C

Question: For `CCCCOCCOc1ccc(-c2ccc3c(c2)C=C(C(=O)Nc2ccc(CCCn4cnnc4)cc2)CCN3CCC)cc1` [Compound 64, 7-[4-(2-butoxyethoxy)phenyl]-1-propyl-N-[4-[3-(4H-1,2,4-triazol-4-yl)propyl]phenyl]-2,3-dihydro-1H-1-benzazepine-4-carboxamide], which melting point is on record?
Answer: 191 to 194 °C

Question: With `CCCCOCCOc1ccc(-c2ccc3c(c2)C=C(C(=O)Nc2ccc(C(O)c4cc(C)cc[n+]4[O-])c(C(F)(F)F)c2)CCN3)cc1` (stereo not drawn) [Compound 16, 7-[4-(2-butoxyethoxy)phenyl]-N-[4-[hydroxy(4-methyl-1-oxidopyridin-2-yl)methyl]-3-trifluoromethylphenyl]-2,3-dihydro-1H-1-benzazepine-4-carboxamide] as the molecule, how does the melting point read?
Answer: 124 to 128 °C

Question: For `CCCCOCCOc1ccc(-c2ccc3c(c2)C=C(C(=O)Nc2ccc([C@@H](O)c4ccccn4)cc2)CCN3C=O)cc1` [Compound 76, 7-[4-(2-butoxyethoxy)phenyl]-1-formyl-N-[4-[(R)-hydroxy(2-pyridyl)methyl]phenyl]-2,3-dihydro-1H-1-benzazepine-4-carboxamide], which melting point is on record?
Answer: 110 to 112 °C

Question: With `CCCCOCCOc1ccc(-c2ccc3c(c2)C=C(C(=O)Nc2ccc([S+]([O-])Cc4nncn4CCCC)cc2)CCN3CC(C)C)cc1` (stereo not drawn) [Compound 143, 7-[4-(2-butoxyethoxy)phenyl]-N-[4-(4-n-butyl-4H-1,2,4-triazol-3-ylmethylsulfinyl)phenyl]-1-isobutyl-2,3-dihydro-1H-benzazepine-4-carboxamide] as the molecule, how does the melting point read?
Answer: 178 to 180 °C
